Test results as given in patent publication US20140271855A1, “SOVAPREVIR TABLETS” (Achillion Pharmaceuticals Inc., priority 2013, published 2014).

Tests used:
[1] = Human pharmacokinetic parameters following a single Sovaprevir tablet dose; type: in vivo; details: mean
[2] = as above; type: in vivo; details: single tablet dose 200 mg, mean
Description: A single 200 mg dose of Sovaprevir was administered to human subjects.
The pharmacokinetic parameters shown in TABLE 4 were measured in humans following administration of a single Sovaprevir tablet dose.

[3] = single tablet dose 100 mg (Fasted)
[4] = single tablet dose 100 mg (Fed)

SMILES: C=C[C@@H]1C[C@]1(NC(=O)[C@@H]1C[C@@H](Oc2cc(-c3ccccc3)nc3cc(OC)ccc23)CN1C(=O)[C@@H](CC(=O)N1CCCCC1)C(C)(C)C)C(=O)NS(=O)(=O)C1CC1 [Sovaprevir]
- AUC(0-72) [1, 3]: 288 ng·h/mL
- AUC(0-∞) [1, 3]: 302 ng·h/mL
- Cmax [1, 3]: 67.2 ng/mL
- Tmax [1, 3]: 1.58 h
- AUC(0-72) [1, 4]: 220 ng·h/mL
- AUC(0-∞) [1, 4]: 228 ng·h/mL
- Cmax [1, 4]: 61.9 ng/mL
- Tmax [1, 4]: 4.20 h
- AUC(0-72) ([1]; single tablet dose 200 mg): 489.9 ng·h/mL
- AUC(0-72) ([1]; single tablet dose 250 mg): 735.6 ng·h/mL
- AUC(0-∞) ([1]; single tablet dose 250 mg): 748.8 ng·h/mL
- Cmax ([1]; single tablet dose 250 mg): 172 ng/mL
- Tmax ([1]; single tablet dose 250 mg): 3.40 h
- AUC(0-72) ([1]; single tablet dose 300 mg): 1301 ng·h/mL
- AUC(0-∞) ([1]; single tablet dose 300 mg): 1314 ng·h/mL
- Cmax ([1]; single tablet dose 300 mg): 333 ng/mL
- Tmax ([1]; single tablet dose 300 mg): 3.39 h
- AUC(0-∞) [2]: 500.0 ng·h/mL
- Cmax [2]: 109 ng/mL
- Tmax [2]: 2.61 h
